Here are results for 24 compounds from patent US10821100B2, “Triazolone compounds as mPGES-1 inhibitors” (Glenmark Pharmaceuticals S.A., priority 2012, dated 2020).

The target in the experiment is T1, Recombinant human mPGES-1 (Homo sapiens, UniProt O14684).
T1 construct: made in house; host or cells: CHO cells (crude microsomal fractions)
T1 sequence (O14684 1-152): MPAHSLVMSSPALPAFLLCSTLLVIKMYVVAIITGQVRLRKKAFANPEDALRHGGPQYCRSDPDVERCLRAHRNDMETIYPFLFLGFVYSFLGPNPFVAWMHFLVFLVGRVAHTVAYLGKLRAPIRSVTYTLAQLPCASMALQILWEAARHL
Description: In-vitro screening of mPGES-1 inhibitors (inhibition of PGE2 formation from PGH2, HTRF detection). It counts as biochemical. The note with it: mPGES-1 enzyme; for inhibition at 1 µM: 1 μM test compound, read-out: Percentage inhibition at 1 μM; for inhibition at 1 µM / inhibition at 10 µM: crude microsomal fractions; for inhibition at 10 µM: 10 μM test compound, read-out: Percentage inhibition at 10 μM; for IC50: class symbols. Put shortly:
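PGH2-to-PGE2 isomerization run for 1 min with 15 μM PGH2 after 10 min compound preincubation with microsomal enzyme (40–60 μg/mL) and 2.5 mM GSH, pH buffer 0.1 M potassium phosphate with EDTA. Stannous chloride quench, HTRF PGE2 readout, IC50 fitted against uninhibited reaction.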
In general terms: In TR-FRET formats the signal depends on donor and acceptor labels being close together.

Broadly, the inhibition is the relative decrease from the control value, in per cent. What is called IC50 is the concentration that gives 50% inhibition. Consider `CC(C)(C)C(=O)NCc1cc(-n2nc(-c3ccc(C#CC4CC4)cc3)[nH]c2=O)c(Cl)cc1Cl` [Example-130, N-(2,4-Dichloro-5-(3-(4-(2-cyclopropylethynyl)phenyl)-4,5-dihydro-5-oxo-1,2,4-triazol-1-yl)benzyl)pivalamide], for which the inhibition at 1 µM is 96.6%, the inhibition at 10 µM turned out to be 97.8% and the IC50 is 50 to 100 nM.
For `O=c1[nH]c(-c2c(F)cccc2Cl)nn1-c1ccc(C#Cc2ccc(Cl)cc2F)cc1` [Example-6, 5-(2-Chloro-6-fluorophenyl)-2-{4-[(4-chloro-2-fluorophenyl)ethynyl]phenyl}-2,4-dihydro-3H-1,2,4-triazol-3-one] the same measures were 83.9%, 87.7% and below 50 nM.
Consider `COc1cc(-n2nc(-c3c(Cl)cccc3C#N)[nH]c2=O)ccc1C(=O)Nc1cccc(C(F)(F)F)c1` [Example-62, 4-(3-(2-Chloro-6-cyanophenyl)-5-oxo-4,5-dihydro-1H-1,2,4-triazol-1-yl)-2-methoxy-N-(3-(trifluoromethyl)phenyl)benzamide], for which the inhibition at 1 µM is 97.8%, the inhibition at 10 µM was found to be 98.3% and the IC50 was below 50 nM.
For `O=C(NCc1ccc(Cl)c(-c2nn(-c3ccc(C(F)(F)F)cc3)c(=O)[nH]2)c1)c1ccccc1F` [Example-104, N-(4-Chloro-3-(5-oxo-1-(4-(trifluoromethyl)phenyl)-4,5-dihydro-1H-1,2,4-triazol-3-yl)benzyl)-2-fluorobenzamide] the same measures were 96.9%, 99.5% and below 50 nM.
Regarding `Cc1ccc(NC(=O)c2ccc(-n3nc(-c4c(F)cccc4Cl)[nH]c3=O)cc2)c(F)c1` [Example-35, 4-(3-(2-Chloro-6-fluorophenyl)-5-oxo-4,5-dihydro-1H-1,2,4-triazol-1-yl)-N-(2-fluoro-4-methylphenyl)benzamide], the inhibition at 1 µM was 37.4% and the inhibition at 10 µM came out at 59.1%.
`COc1cc(-n2nc(-c3c(F)cccc3Cl)[nH]c2=O)ccc1C(=O)Nc1cc(C(F)(F)F)ccc1F` [Example-36, 4-(3-(2-Chloro-6-fluorophenyl)-5-oxo-4,5-dihydro-1H-1,2,4-triazol-1-yl)-N-(2-fluoro-5-(trifluoromethyl)phenyl)-2-methoxybenzamide]: the inhibition at 1 µM turned out to be 97.3%, the inhibition at 10 µM amounted to 98.9% and the half-inhibitory concentration (IC50) was below 50 nM.
In the case of `CC(C)(C)C(=O)NCc1cnc(C(F)F)c(-c2nn(-c3ccc(C(F)(F)F)cc3)c(=O)[nH]2)c1` [Example-186], the inhibition at 1 µM is 96.8%, the inhibition at 10 µM was 98% and the IC50 was below 50 nM.
On to `COc1cc(-c2nn(-c3c(Cl)cccc3Cl)c(=O)[nH]2)ccc1NC(=O)c1ccc(C(F)(F)F)cc1` [Example-176, N-(4-(1-(2,6-Dichlorophenyl)-4,5-dihydro-5-oxo-1H-1,2,4-triazol-3-yl)-2-methoxyphenyl)-4-(trifluoromethyl)benzamide], for which the inhibition at 1 µM worked out at 45.8% and the inhibition at 10 µM is 89.5%.
Turning to `Cc1ccc(CNC(=O)C(C)C)c(C)c1-c1nn(-c2ccc(C#CC(C)(C)C)c(F)c2)c(=O)[nH]1` [Example-170, N-(3-(1-(3-Fluoro-4-(3,3-dimethylbut-1-ynyl)phenyl)-4,5-dihydro-5-oxo-1H-1,2,4-triazol-3-yl)-2,4-dimethylbenzyl)isobutyramide], the inhibition at 1 µM came out at 99.8%, the inhibition at 10 µM was determined as 98.9% and the IC50 is below 50 nM.
For `Cc1csc(-c2ccc(-n3nc(-c4c(F)cccc4-c4cc(C)cs4)[nH]c3=O)cc2)c1` [Example-4, 5-[2-Fluoro-6-(4-methylthiophen-2-yl)phenyl]-2-[4-(4-methylthiophen-2-yl)phenyl]-2,4-dihydro-3H-1,2,4-triazol-3-one], the inhibition at 1 µM was 46.4% and the inhibition at 10 µM was determined as 69.7%.
In the case of `O=C(Nc1ccc(F)c(C(F)(F)F)c1)c1ccc(-n2nc(-c3c(F)cccc3Cl)[nH]c2=O)cc1` [Example-32, 4-(3-(2-Chloro-6-fluorophenyl)-5-oxo-4,5-dihydro-1H-1,2,4-triazol-1-yl)-N-(4-fluoro-3-(trifluoromethyl)phenyl)benzamide], the inhibition at 1 µM was 88.8%, the inhibition at 10 µM was 94% and the half-maximal inhibitory concentration (IC50) lay in the range of 50 to 100 nM.
In the case of `O=c1[nH]c(-c2c(F)cccc2Cl)nn1-c1ccc(-c2ccc(C(F)(F)F)nc2)cc1` [Example-2, 5-(2-Chloro-6-fluorophenyl)-2-{4-[6-(trifluoromethyl)pyridin-3-yl]phenyl}-2,4-dihydro-3H-1,2,4-triazol-3-one], the inhibition at 1 µM turned out to be 18% and the inhibition at 10 µM came out at 19%.
With `Cc1ccc(-n2nc(-c3cc(CNC(=O)C(C)(C)C)c(F)cc3Cl)[nH]c2=O)cc1Cl` [Example-135, N-(4-Chloro-5-(1-(3-chloro-4-methylphenyl)-4,5-dihydro-5-oxo-1H-1,2,4-triazol-3-yl)-2-fluorobenzyl)pivalamide], the inhibition at 1 µM was 92.3%, the inhibition at 10 µM turned out to be 98.9% and the concentration for half-maximal inhibition (IC50) was below 50 nM.
As to `COc1cc(-n2nc(-c3c(Cl)cccc3Cl)[nH]c2=O)ccc1C(=O)Nc1ccc(S(C)(=O)=O)cc1` [Example-67, 4-(3-(2,6-Dichlorophenyl)-5-oxo-4,5-dihydro-1H-1,2,4-triazol-1-yl)-2-methoxy-N-(4-(methylsulfonyl)phenyl)benzamide], the inhibition at 1 µM came out at 72.7% and the inhibition at 10 µM worked out at 96.3%.
As to `CC(C)(C)C(=O)NCc1ccc(Cl)c(-c2nn(-c3ccc(C(F)(F)F)nc3)c(=O)[nH]2)c1` [Example-138, N-(4-Chloro-3-(1-(6-(trifluoromethyl)pyridin-3-yl)-4,5-dihydro-5-oxo-1H-1,2,4-triazol-3-yl)benzyl)pivalamide], the inhibition at 1 µM is 93.3%, the inhibition at 10 µM came to 92.9% and the IC50 is below 50 nM.
Taken in the same sequence, the figures for `COc1cc(-c2nn(-c3c(Cl)cccc3Cl)c(=O)[nH]2)ccc1C#Cc1cc(Cl)ccc1Cl` [Example-171, 2-(2,6-Dichlorophenyl)-5-(4-(2-(2,5-dichlorophenyl)ethynyl)-3-methoxyphenyl)-2H-1,2,4-triazol-3 (4H)-one] were 95.2%, 99.6% and below 50 nM.
With `CC(C)(C)C(=O)NCc1ccc(Cl)c(-n2nc(-c3ccc(C#CC4CC4)c(F)c3)[nH]c2=O)c1` [Example-166, N-(4-Chloro-3-(3-(4-(2-cyclopropylethynyl)-3-fluorophenyl)-4,5-dihydro-5-oxo-1,2,4-triazol-1-yl)benzyl)pivalamide], the inhibition at 1 µM came out at 99.7%, the inhibition at 10 µM stood at 100% and the IC50 is below 50 nM.
For the compound `Cc1ccc(Cl)cc1NC(=O)c1ccc(-n2nc(-c3c(F)cccc3Cl)[nH]c2=O)cc1` [Example-37, N-(5-Chloro-2-methylphenyl)-4-(3-(2-chloro-6-fluorophenyl)-5-oxo-4,5-dihydro-1H-1,2,4-triazol-1-yl)benzamide], the inhibition at 1 µM turned out to be 51% and the inhibition at 10 µM stood at 94.3%.
For the compound `CC(C)(C)C(=O)NCc1ccc(Cl)c(-c2nn(-c3ccc(C(F)(F)F)nc3)c(=O)[nH]2)c1F` [Example-95, N-(4-Chloro-2-fluoro-3-(5-oxo-1-(6-(trifluoromethyl)pyridin-3-yl)-4,5-dihydro-1H-1,2,4-triazol-3-yl)benzyl)pivalamide], the inhibition at 1 µM amounted to 98.7%, the inhibition at 10 µM worked out at 99% and the IC50 was below 50 nM.
For `O=c1[nH]c(-c2c(F)cccc2Cl)nn1-c1ccc(-c2nc(-c3ccc(Cl)cc3)no2)cc1` [Example-51, 3-(2-Chloro-6-fluorophenyl)-1-(4-(3-(4-chlorophenyl)-1,2,4-oxadiazol-5-yl)phenyl)-1H-1,2,4-triazol-5(4H)-one] the same measures were 88.3%, 86% and below 50 nM.
On to `CCn1c(-c2c(F)cccc2Cl)nn(-c2ccc(C#Cc3cccc(Cl)c3F)cc2)c1=O` [Example-71], for which the inhibition at 1 µM was determined as 12.9% and the inhibition at 10 µM was 17.9%.
For `CC1(C)CCC(n2nc(-c3cc(CNC(=O)C(F)(F)F)ccc3Cl)[nH]c2=O)CC1` [Example-117, N-(4-chloro-3-(4,5-dihydro-1-(4,4-dimethylcyclohexyl)-5-oxo-1H-1,2,4-triazol-3-yl)benzyl)-2,2,2-trifluoroacetamide] the same measures were 67.9% and 95%.
Taken in the same sequence, the figures for `COc1cc(Cl)c(-c2nn(-c3ccc(C(F)(F)F)cc3)c(=O)[nH]2)cc1CNC(=O)C(C)(C)C` [Example-127, N-(4-Chloro-5-(1-(4-(trifluoromethyl)phenyl)-4,5-dihydro-5-oxo-1H-1,2,4-triazol-3-yl)-2-methoxybenzyl)pivalamide] were 32.4% and 58.5%.
On to `COc1cc(-n2nc(-c3c(Cl)cccc3Cl)[nH]c2=O)ccc1-c1nc(C(C)C)no1` [Example-50, 3-(2,6-Dichlorophenyl)-1-(4-(3-isopropyl-1,2,4-oxadiazol-5-yl)-3-methoxyphenyl)-1H-1,2,4-triazol-5(4H)-one], for which the inhibition at 1 µM came out at 95.3%, the inhibition at 10 µM stood at 99.8% and the IC50 was 50 to 100 nM.
